Measurements as given in patent US20060235076A1, “Medicinal composition for treating infection with drug-resistant staphylococcus aureus” (priority 2003, published 2006).
Values after ≈ are worked out from the molar mass of the structure shown. “Also recorded” adds a separate entry of the source. Read-outs that look alike come from different tables or passages of the source.

Experiments:
MRSA and MSSA = assay: Antibacterial activity of gallic acid, various gallates and multivalent phenol derivatives alone (agar plate dilution method, MIC); assay type: cell-based, Staphylococcus aureus; conditions: Staphylococcus aureus
Protocol: (§1) According to the agar plate dilution method defined by Japan Society of Chemotherapy, MIC (Minimum inhibitory concentration) was determined. CAMHA was prepared by adding 50 mg/l of Ca-ion, 25 mg/l of Mg-ion, and 2% of NaCl to Mueller-Hinton II Agar (MHA), and it was used as a medium for use in the measurement of sensitivity. The bacterial liquid was incubated at 37° C. overnight and diluted to 10^6 CFU/ml with saline.
MIC for gallic acid, various gallates and multivalent phenol derivatives alone with MRSA and MSSA were determined as described in experiment 2.

MRSA = assay: Potentiating effect of galloyl quinic acid derivatives for the antibacterial activity of oxacillin (agar plate dilution method, MIC); assay type: cell-based, Staphylococcus aureus
Protocol: as §1
It was confirmed that the known substances shown below were contained in “Tara” and their MICs were determined as described in example 2 with respect to the effects of the combination use with oxacillin

[1] = COL, compound alone, read-out: MIC
[2] = MRSA #1, compound alone, read-out: MIC
[3] = MRSA #2, compound alone, read-out: MIC
[4] = MRSA #3, compound alone, read-out: MIC
[5] = MRSA #4, compound alone, read-out: MIC
[6] = MRSA #5, compound alone, read-out: MIC
[7] = MRSA #6, compound alone, read-out: MIC
[8] = MRSA #7, compound alone, read-out: MIC
[9] = MRSA #8, compound alone, read-out: MIC
[10] = MRSA #9, compound alone, read-out: MIC
[11] = MRSA #10, compound alone, read-out: MIC
[12] = MRSA #12, compound alone, read-out: MIC
[13] = MRSA #16, compound alone, read-out: MIC
[14] = MRSA #17, compound alone, read-out: MIC
[15] = MRSA #18, compound alone, read-out: MIC
[16] = MRSA #20, compound alone, read-out: MIC
[17] = MRSA #21, compound alone, read-out: MIC
[18] = MRSA #22, compound alone, read-out: MIC
[19] = MRSA #24, compound alone, read-out: MIC
[20] = MSSA #1003, compound alone, read-out: MIC
[21] = MSSA #1010, compound alone, read-out: MIC
[22] = MSSA #1020, compound alone, read-out: MIC
[23] = MSSA #1023, compound alone, read-out: MIC
[24] = MSSA #1029, compound alone, read-out: MIC
[25] = MSSA #1032, compound alone, read-out: MIC

CC(C)CCOC(=O)c1ccc(O)cc1 [Isoamyl 4-hydroxybenzoate]
MIC50 (MRSA and MSSA): 62.5 µg/mL (≈ 300 µM)
MIC (MRSA and MSSA; ATCC 6538 / MRSA / MSSA): 62.5 µg/mL (≈ 300 µM)
MIC (MRSA and MSSA; [1]): 62.5 µg/mL (≈ 300 µM)
MIC (MRSA and MSSA; [2]): 62.5 µg/mL (≈ 300 µM)
MIC (MRSA and MSSA; [3]): 62.5 µg/mL (≈ 300 µM)
MIC (MRSA and MSSA; [4]): 62.5 µg/mL (≈ 300 µM)
MIC (MRSA and MSSA; [5]): 62.5 µg/mL (≈ 300 µM)
MIC (MRSA and MSSA; [6]): 62.5 µg/mL (≈ 300 µM)
MIC (MRSA and MSSA; [7]): 62.5 µg/mL (≈ 300 µM)
MIC (MRSA and MSSA; [8]): 62.5 µg/mL (≈ 300 µM)
MIC (MRSA and MSSA; [9]): 62.5 µg/mL (≈ 300 µM)
MIC (MRSA and MSSA; [10]): 62.5 µg/mL (≈ 300 µM)
MIC (MRSA and MSSA; [11]): 31.3 µg/mL (≈ 150 µM)
MIC (MRSA and MSSA; [12]): 62.5 µg/mL (≈ 300 µM)
MIC (MRSA and MSSA; [13]): 62.5 µg/mL (≈ 300 µM)
MIC (MRSA and MSSA; [14]): 62.5 µg/mL (≈ 300 µM)
MIC (MRSA and MSSA; [15]): 62.5 µg/mL (≈ 300 µM)
MIC (MRSA and MSSA; [16]): 62.5 µg/mL (≈ 300 µM)
MIC (MRSA and MSSA; [17]): 62.5 µg/mL (≈ 300 µM)
MIC (MRSA and MSSA; [18]): 62.5 µg/mL (≈ 300 µM)
MIC (MRSA and MSSA; [19]): 62.5 µg/mL (≈ 300 µM)
MIC (MRSA and MSSA; [20]): 62.5 µg/mL (≈ 300 µM)
MIC (MRSA and MSSA; [21]): 62.5 µg/mL (≈ 300 µM)
MIC (MRSA and MSSA; [22]): 62.5 µg/mL (≈ 300 µM)
MIC (MRSA and MSSA; [23]): 62.5 µg/mL (≈ 300 µM)
MIC (MRSA and MSSA; [24]): 62.5 µg/mL (≈ 300 µM)
MIC (MRSA and MSSA; [25]): 62.5 µg/mL (≈ 300 µM)

COC(=O)c1cc(O)c(O)c(O)c1 [Methyl gallate, methyl gallate]
MIC (MRSA and MSSA; ATCC 6538 / MRSA / MSSA, ATCC6538, read-out: MIC alone): 250 µg/mL (≈ 1360 µM)
MIC (MRSA and MSSA; COL, read-out: MIC alone): 250 µg/mL (≈ 1360 µM)
MIC (MRSA and MSSA; MRSA #1, read-out: MIC alone): 250 µg/mL (≈ 1360 µM)
MIC (MRSA and MSSA; MRSA #2, read-out: MIC alone): 125 µg/mL (≈ 679 µM)
MIC (MRSA and MSSA; MRSA #3, read-out: MIC alone): 250 µg/mL (≈ 1360 µM)
MIC (MRSA and MSSA; MRSA #4, read-out: MIC alone): 125 µg/mL (≈ 679 µM)
MIC (MRSA and MSSA; MRSA #5, read-out: MIC alone): 250 µg/mL (≈ 1360 µM)
MIC (MRSA and MSSA; MRSA #6, read-out: MIC alone): 125 µg/mL (≈ 679 µM)
MIC (MRSA and MSSA; MRSA #7, read-out: MIC alone): 250 µg/mL (≈ 1360 µM)
MIC (MRSA and MSSA; MRSA #8, read-out: MIC alone): 250 µg/mL (≈ 1360 µM)
MIC (MRSA and MSSA; MRSA #9, read-out: MIC alone): 62.5 µg/mL (≈ 339 µM)
MIC (MRSA and MSSA; MRSA #10, read-out: MIC alone): 62.5 µg/mL (≈ 339 µM)
MIC (MRSA and MSSA; MRSA #12, read-out: MIC alone): 250 µg/mL (≈ 1360 µM)
MIC (MRSA and MSSA; MRSA #16, read-out: MIC alone): 125 µg/mL (≈ 679 µM)
MIC (MRSA and MSSA; MRSA #17, read-out: MIC alone): 125 µg/mL (≈ 679 µM)
MIC (MRSA and MSSA; MRSA #18, read-out: MIC alone): 125 µg/mL (≈ 679 µM)
MIC (MRSA and MSSA; MRSA #20, read-out: MIC alone): 250 µg/mL (≈ 1360 µM)
MIC (MRSA and MSSA; MRSA #21, read-out: MIC alone): 250 µg/mL (≈ 1360 µM)
MIC (MRSA and MSSA; MRSA #22, read-out: MIC alone): 250 µg/mL (≈ 1360 µM)
MIC (MRSA and MSSA; MRSA #24, read-out: MIC alone): 250 µg/mL (≈ 1360 µM)
MIC (MRSA and MSSA; MSSA #1003, read-out: MIC alone): 250 µg/mL (≈ 1360 µM)
MIC (MRSA and MSSA; MSSA #1010, read-out: MIC alone): 250 µg/mL (≈ 1360 µM)
MIC (MRSA and MSSA; MSSA #1020, read-out: MIC alone): 250 µg/mL (≈ 1360 µM)
MIC (MRSA and MSSA; MSSA #1023, read-out: MIC alone): 125 µg/mL (≈ 679 µM)
MIC (MRSA and MSSA; MSSA #1029, read-out: MIC alone): 62.5 µg/mL (≈ 339 µM)
MIC (MRSA and MSSA; MSSA #1032, read-out: MIC alone): 250 µg/mL (≈ 1360 µM)
MIC50 (MRSA and MSSA; compound alone, over all strains of Table 3-1, read-out: MIC50): 250 µg/mL (≈ 1360 µM)

CCCCCOC(=O)c1ccc(O)cc1 [n-Amyl 4-hydroxybenzoate]
MIC50 (MRSA and MSSA): 62.5 µg/mL (≈ 300 µM)
MIC (MRSA and MSSA; ATCC 6538 / MRSA / MSSA): 62.5 µg/mL (≈ 300 µM)
MIC (MRSA and MSSA; [1]): 62.5 µg/mL (≈ 300 µM)
MIC (MRSA and MSSA; [2]): 62.5 µg/mL (≈ 300 µM)
MIC (MRSA and MSSA; [3]): 62.5 µg/mL (≈ 300 µM)
MIC (MRSA and MSSA; [4]): 62.5 µg/mL (≈ 300 µM)
MIC (MRSA and MSSA; [5]): 62.5 µg/mL (≈ 300 µM)
MIC (MRSA and MSSA; [6]): 62.5 µg/mL (≈ 300 µM)
MIC (MRSA and MSSA; [7]): 31.3 µg/mL (≈ 150 µM)
MIC (MRSA and MSSA; [8]): 62.5 µg/mL (≈ 300 µM)
MIC (MRSA and MSSA; [9]): 31.3 µg/mL (≈ 150 µM)
MIC (MRSA and MSSA; [10]): 31.3 µg/mL (≈ 150 µM)
MIC (MRSA and MSSA; [11]): 62.5 µg/mL (≈ 300 µM)
MIC (MRSA and MSSA; [12]): 62.5 µg/mL (≈ 300 µM)
MIC (MRSA and MSSA; [13]): 62.5 µg/mL (≈ 300 µM)
MIC (MRSA and MSSA; [14]): 62.5 µg/mL (≈ 300 µM)
MIC (MRSA and MSSA; [15]): 62.5 µg/mL (≈ 300 µM)
MIC (MRSA and MSSA; [16]): 62.5 µg/mL (≈ 300 µM)
MIC (MRSA and MSSA; [17]): 62.5 µg/mL (≈ 300 µM)
MIC (MRSA and MSSA; [18]): 62.5 µg/mL (≈ 300 µM)
MIC (MRSA and MSSA; [19]): 62.5 µg/mL (≈ 300 µM)
MIC (MRSA and MSSA; [20]): 62.5 µg/mL (≈ 300 µM)
MIC (MRSA and MSSA; [21]): 62.5 µg/mL (≈ 300 µM)
MIC (MRSA and MSSA; [22]): 62.5 µg/mL (≈ 300 µM)
MIC (MRSA and MSSA; [23]): 31.3 µg/mL (≈ 150 µM)
MIC (MRSA and MSSA; [24]): 62.5 µg/mL (≈ 300 µM)
MIC (MRSA and MSSA; [25]): 62.5 µg/mL (≈ 300 µM)

O=C(OC1CC(O)(C(=O)O)CC(OC(=O)c2cc(O)c(O)c(O)c2)C1OC(=O)c1cc(O)c(O)c(O)c1)c1cc(O)c(O)c(O)c1 (stereo not shown) [3,4,5-trigalloylquinic acid]
effect of combination use with oxacillin (words) (MRSA): excellent; also recorded: most potent
